# Experimental data as given in PubChem BioAssay (NCI).
#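 These data come from cells grown in 96-well plates and exposed to compound for 48 hours at five concentrations. Definition used: TGI = concentration required for complete inhibition of growth.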
# Tests used:
# Test in all cases: NCI tumour cell line growth inhibition, 48 h
# 786-0 renal = test system: 786-0 renal
# ACHN renal = test system: ACHN renal
# BT-549 breast = test system: BT-549 breast
# DU-145 prostate = test system: DU-145 prostate
# HOP-62 NSCLC = test system: HOP-62 NSCLC
# HOP-92 NSCLC = test system: HOP-92 NSCLC
# HT29 colon = test system: HT29 colon
# IGROV1 ovarian = test system: IGROV1 ovarian
# M14 melanoma = test system: M14 melanoma
# MDA-N = test system: MDA-N
# NCI/ADR-RES ovarian = test system: NCI/ADR-RES ovarian
# OVCAR-4 ovarian = test system: OVCAR-4 ovarian
# OVCAR-8 ovarian = test system: OVCAR-8 ovarian
# SF-539 CNS = test system: SF-539 CNS
# SK-MEL-5 melanoma = test system: SK-MEL-5 melanoma
# SN12C renal = test system: SN12C renal
# SR leukemia = test system: SR leukemia
# UACC-62 melanoma = test system: UACC-62 melanoma
SMILES,TGI (786-0 renal),TGI (ACHN renal),TGI (BT-549 breast),TGI (DU-145 prostate),TGI (HOP-62 NSCLC),TGI (HOP-92 NSCLC),TGI (HT29 colon),TGI (IGROV1 ovarian),TGI (M14 melanoma),TGI (MDA-N),TGI (NCI/ADR-RES ovarian),TGI (OVCAR-4 ovarian),TGI (OVCAR-8 ovarian),TGI (SF-539 CNS),TGI (SK-MEL-5 melanoma),TGI (SN12C renal),TGI (SR leukemia),TGI (UACC-62 melanoma)
CC(=O)CCC[C@@H](C)[C@@H]1O[C@H]([C@@]2(C)CCC(=O)O2)C[C@H]2C(CSc3ccccc3)C(=O)O[C@@H]12 (stereo not given in full),42.2 µM,28.9 µM,27.5 µM,29.1 µM,> 100 µM,39.1 µM,40.1 µM,> 38 µM,26.8 µM,42.2 µM,43.7 µM,31.8 µM,> 50.8 µM,36.9 µM,> 54.3 µM,34.2 µM,> 100 µM,28.5 µM
[N-]=[N+]=Nc1ccc2c(c1)Sc1ccccc1N2CCCCCl,> 100 µM,> 100 µM,> 100 µM,> 100 µM,> 100 µM,> 100 µM,> 100 µM,> 100 µM,> 100 µM,> 100 µM,> 100 µM,> 100 µM,> 100 µM,> 100 µM,59.8 µM,> 100 µM,> 100 µM,> 100 µM
CCCCCc1c2nc(c(CCCCC)c3ccc([nH]3)c(CCCCC)c3ccc([nH]3)c(CCCCC)c3nc1C=C3)C=C2,> 100 µM,> 100 µM,> 100 µM,> 100 µM,> 100 µM,> 100 µM,> 100 µM,> 100 µM,> 100 µM,> 100 µM,> 100 µM,> 100 µM,> 100 µM,> 100 µM,> 100 µM,> 100 µM,> 100 µM,> 100 µM
C[Si](C)(C)OC1c2[nH]c3ccccc3c2CN2C(=O)CCC12 (stereo not given),> 100 µM,> 100 µM,> 100 µM,> 100 µM,> 100 µM,> 100 µM,> 100 µM,> 100 µM,> 100 µM,> 100 µM,> 100 µM,> 100 µM,> 100 µM,> 100 µM,> 100 µM,> 100 µM,> 100 µM,> 100 µM
CC1OC(O[C@H]2CC[C@]3(C)[C@H]4CC=C5[C@@H]6[C@@H](C)[C@H](C)CC[C@]6(C(=O)O)CC[C@@]5(C(=O)O)[C@]4(C)CC[C@H]3C2(C)C)C(O)C(O)C1O (stereo not given in full),> 75 µM,> 75 µM,> 75 µM,> 75 µM,> 75 µM,> 75 µM,,,> 75 µM,> 75 µM,> 75 µM,> 75 µM,> 75 µM,> 75 µM,> 75 µM,> 75 µM,> 75 µM,> 75 µM
Cc1sc2nc3n(c(=O)c2c1C)N=C(c1ccc(Cl)cc1)CS3,> 100 µM,> 100 µM,> 100 µM,> 100 µM,> 100 µM,> 100 µM,> 100 µM,,,> 100 µM,> 100 µM,> 100 µM,> 100 µM,> 100 µM,> 100 µM,> 100 µM,> 100 µM,> 100 µM
O=C1N=C(c2ccccc2)O/C1=C\c1ccccc1,> 100 µM,> 100 µM,> 100 µM,> 100 µM,> 100 µM,> 100 µM,> 100 µM,> 100 µM,> 100 µM,> 100 µM,> 100 µM,> 100 µM,> 100 µM,> 100 µM,> 100 µM,> 100 µM,> 100 µM,> 100 µM
COC(=N)C12C(N)=NC(OC)(OC)C1(C#N)C21C(=O)N(c2ccccc2)N=C1C (stereo not given),> 100 µM,> 100 µM,> 100 µM,> 100 µM,> 100 µM,> 100 µM,> 100 µM,> 100 µM,> 100 µM,> 100 µM,> 100 µM,> 100 µM,> 100 µM,> 100 µM,,> 100 µM,> 100 µM,> 100 µM
CCCCc1c2c(nc3c1CCC/C3=C\c1ccccc1)C(=O)C(CN(C)C)CC2 (stereo not given),23.9 µM,29.5 µM,19.8 µM,29.1 µM,34.1 µM,33.5 µM,28.9 µM,36.9 µM,33.7 µM,21.1 µM,91.7 µM,22.9 µM,46.1 µM,36.5 µM,30.9 µM,43.1 µM,9.17 µM,48.4 µM
COc1cc2cc(C(=O)N3CC(CCl)c4ccc(NCCN)cc43)[nH]c2c(OC)c1OC (stereo not given),1.12 µM,0.768 µM,1.94 µM,6.2 µM,0.645 µM,4 µM,11.1 µM,0.375 µM,0.716 µM,0.432 µM,1.54 µM,3.06 µM,2.77 µM,1.41 µM,0.263 µM,2.42 µM,38.8 µM,0.35 µM
COc1cc(-c2coc3c(OC)c(OC4OC(CO)C(O)C(O)C4O)c(OC)cc3c2=O)cc(OC)c1C (stereo not given),> 100 µM,30 µM,16.1 µM,26.8 µM,44.1 µM,38.4 µM,35.1 µM,30.9 µM,23.2 µM,46.7 µM,27.4 µM,63.2 µM,25.3 µM,> 29 µM,27.8 µM,51.8 µM,> 100 µM,17.2 µM
C=C(C)[C@@H]1CC[C@]2(C(=O)O)CC[C@]3(C)[C@H](CC[C@@H]4[C@@]5(C)CC[C@H](C(=O)/C=C/c6ccc(O)cc6)C(C)(C)[C@@H]5CC[C@]43C)[C@@H]12,> 100 µM,,38.5 µM,18.1 µM,27.8 µM,29.2 µM,45.4 µM,28.3 µM,21.9 µM,18 µM,29.3 µM,72.4 µM,53.9 µM,20.3 µM,10.4 µM,10.4 µM,> 100 µM,30 µM
